pEC50: −log10 of the molar value.
How the values were obtained:
S1P3 = S1P3 (Homo sapiens, UniProt Q99500); assay: Method A: Receptor [35S] GTPγS Binding Assay, membranes from EDG3-Ga15-bla HEK293T cells; type: biochemical; parameters: expressed in transfected cells; host or cells: EDG3-Ga15-bla HEK293T cells; settings: EDG3-Ga15-bla HEK293T cell membranes
Method in brief: (§1)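 Membranes ([…]) incubated 45 min at room temperature with 3-fold compound dilutions and 0.2 nM final [35S]GTPγS in HEPES pH 7.5 buffer containing 10 μM GDP, MgCl2, EGTA, DTT, BSA and saponin. Bound label collected by filtration and scintillation counting; EC50 taken at 50% of each compound's Ymax.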

S1P1 = S1P1 (Homo sapiens, UniProt P21453); assay: Method A: Receptor [35S] GTPγS Binding Assay, membranes from S1P1/CHO cells; type: biochemical; parameters: expressed in transfected cells; host or cells: S1P1/CHO cells
Method in brief: as §1

circulating lymphocytes = assay: Blood Lymphocyte Reduction Assay (BLR) in mice; type: in vivo; settings: BALB/c mice, oral, vs vehicle group
Method: Lewis rats or BALB/c mice were dosed orally with test article (as a solution or suspension in the vehicle) or vehicle alone (polyethylene glycol 300, “PEG300”). Blood was drawn at 4 hr and 24 h by retro-orbital bleeding. Blood lymphocyte counts were determined on an ADVIA® 120 Hematology Analyzer (Siemens Healthcare Diagnostics). The results were measured as a reduction in the percentage of circulating lymphocytes as compared to the vehicle treated group at the 4 hr and 24 hr measurement. The results represent the average results of all animals within each treatment group (n=3-4).
Examples 1 and 2 were tested in the Blood Lymphocyte Reduction assay (BLR) described hereinabove and the results are shown in Table D for rats and Table E for mice.

S1P1, sequence (P21453 whole entry): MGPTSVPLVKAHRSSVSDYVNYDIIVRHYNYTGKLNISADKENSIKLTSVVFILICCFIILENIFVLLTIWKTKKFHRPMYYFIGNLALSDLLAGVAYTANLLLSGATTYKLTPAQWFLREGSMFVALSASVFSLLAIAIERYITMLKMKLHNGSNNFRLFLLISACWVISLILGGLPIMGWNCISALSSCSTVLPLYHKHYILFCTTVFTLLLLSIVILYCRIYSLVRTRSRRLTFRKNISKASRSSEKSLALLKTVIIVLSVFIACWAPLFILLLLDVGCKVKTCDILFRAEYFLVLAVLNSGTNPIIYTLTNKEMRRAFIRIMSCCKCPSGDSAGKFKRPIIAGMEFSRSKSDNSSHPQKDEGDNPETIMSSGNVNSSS
S1P3, sequence (Q99500 whole entry): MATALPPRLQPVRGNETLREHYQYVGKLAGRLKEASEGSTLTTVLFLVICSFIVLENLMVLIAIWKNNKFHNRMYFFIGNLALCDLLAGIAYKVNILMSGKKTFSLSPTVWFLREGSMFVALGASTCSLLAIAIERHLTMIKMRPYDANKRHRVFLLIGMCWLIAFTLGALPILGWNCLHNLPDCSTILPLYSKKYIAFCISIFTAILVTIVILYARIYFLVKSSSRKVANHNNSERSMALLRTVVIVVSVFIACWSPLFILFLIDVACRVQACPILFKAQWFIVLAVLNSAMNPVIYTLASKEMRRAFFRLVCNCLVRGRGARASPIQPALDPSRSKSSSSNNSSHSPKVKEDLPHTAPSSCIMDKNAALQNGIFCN

O=C(O)C1CN(Cc2ccc(-c3noc(-c4onc(-c5ccccc5)c4C(F)(F)F)n3)cc2)C1 [Example 1, 1-(4-(5-(3-Phenyl-4-(trifluoromethyl)isoxazol-5-yl)-1,2,4-oxadiazol-3-yl)benzyl)azetidine-3-carboxylic acid]
pEC50 (S1P3): 6.03 | pEC50 (S1P1; Method A, S1P1/CHO cell membranes): 9.17 | GTPγS S1P3/S1P1 (Method A) (S1P1; ratio of GTPγS S1P3 EC50 to GTPγS S1P1 EC50, Method A): 1,400 | % reduction in lymphocytes at 4 hr. (circulating lymphocytes; 0.001 mg/kg): 12% | % reduction in lymphocytes at 24 hr. (circulating lymphocytes; 0.001 mg/kg): 31% | % reduction in lymphocytes at 4 hr. (circulating lymphocytes; 0.01 mg/kg): 32% | % reduction in lymphocytes at 24 hr. (circulating lymphocytes; 0.01 mg/kg): 45% | % reduction in lymphocytes at 4 hr. (circulating lymphocytes; 0.1 mg/kg): 85% | % reduction in lymphocytes at 24 hr. (circulating lymphocytes; 0.1 mg/kg): 89% | % reduction in lymphocytes at 4 hr. (circulating lymphocytes; 1.0 mg/kg): 90% | % reduction in lymphocytes at 24 hr. (circulating lymphocytes; 1.0 mg/kg): 91%

Source: patent publication US8354398B2, “Substituted isoxazole compounds” (Bristol-Myers Squibb Company, priority 2009, dated 2013)
